Measured values as given in the supplement of paper PMC10307832.

How the values were obtained:
Assay in all cases: relative viability (nuclei count vs DMSO), 5 days (fraction); higher = more cells survive
[1] = compound: CC[C@H](Nc1ncnc2[nH]cnc12)c1nc2cccc(F)c2c(=O)n1-c1ccccc1 [Idelalisib] + CC(C)C[C@H](NC(=O)[C@H](Cc1ccccc1)NC(=O)c1cnccn1)B(O)O [Bortezomib] (partner 0.002 µM)
Method in brief: (§1)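 Nuclei were stained with Hoechst during a one-step fixation (final 0.05% Triton X-100, 1% formaldehyde, 1 ug/ml Hoechst) carried out 5 days after dosing, then counted on 4× images. The cells, lung cancer lines in 1536-well plates, had been dosed by pin tool the day after seeding with one drug alone or a fixed anchor-drug dose plus five library-drug doses (not always all listed) in √10 steps. Relative viability is the nuclei count in treated wells divided by that in vehicle wells, and each value is the median of duplicate plates.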

[2] = compound: Nc1nc2[nH]cc(CCc3ccc(C(=O)N[C@@H](CCC(=O)O)C(=O)O)cc3)c2c(=O)[nH]1 [Pemetrexed] + C[C@]1(O)C[C@@H](c2nc(-c3ccc4ccc(-c5ccccc5)nc4c3)c3c(N)nccn32)C1 [Linsitinib] (partner 1 µM)
Method in brief: as §1

[3] = compound: CC[C@H](Nc1ncnc2[nH]cnc12)c1nc2cccc(F)c2c(=O)n1-c1ccccc1 [Idelalisib] + CCNC(=O)c1noc(-c2cc(C(C)C)c(O)cc2O)c1-c1ccc(CN2CCOCC2)cc1 [Luminespib] (partner 0.01 µM)
Method in brief: as §1

[4] = compound: Nc1nc2[nH]cc(CCc3ccc(C(=O)N[C@@H](CCC(=O)O)C(=O)O)cc3)c2c(=O)[nH]1 [Pemetrexed] + Cc1cc(Nc2cc(N3CCN(C)CC3)nc(Sc3ccc(NC(=O)C4CC4)cc3)n2)n[nH]1 [Tozasertib] (partner 0.1 µM)
Method in brief: as §1

Row | Cell Line | relative viability ([1]; first compound 0.04 µM) | relative viability ([1]; first compound 0.1265 µM) | relative viability ([1]; first compound 0.4 µM) | relative viability ([1]; first compound 1.265 µM) | relative viability ([1]; first compound 4 µM) | relative viability ([2]; first compound 0.002 µM) | relative viability ([2]; first compound 0.006325 µM) | relative viability ([2]; first compound 0.02 µM) | relative viability ([2]; first compound 0.06325 µM) | relative viability ([2]; first compound 0.2 µM) | relative viability ([3]; first compound 0.04 µM) | relative viability ([3]; first compound 0.1265 µM) | relative viability ([3]; first compound 0.4 µM) | relative viability ([3]; first compound 1.265 µM) | relative viability ([3]; first compound 4 µM) | relative viability ([4]; first compound 0.002 µM) | relative viability ([4]; first compound 0.006325 µM) | relative viability ([4]; first compound 0.02 µM) | relative viability ([4]; first compound 0.06325 µM) | relative viability ([4]; first compound 0.2 µM)
1 | SK-LU-1 | 1.06 | 1.14 | 0.961 | 0.95 | 1.04 | 1.01 | 1.03 | 1.15 | 0.951 | 0.968 | 0.225 | 0.189 | 0.185 | 0.188 | 0.205 | 0.303 | 0.324 | 0.374 | 0.378 | 0.333
2 | ABC-1 | 0.327 | 0.243 | 0.309 | 0.326 | 0.288 | 0.904 | 0.804 | 0.828 | 0.753 | 0.713 | 0.466 | 0.643 | – | 0.521 | 0.497 | 0.163 | 0.172 | 0.172 | 0.191 | 0.167
3 | NCI-H2085 | 0.916 | 1.08 | 0.983 | 1.06 | 0.848 | 0.872 | 0.828 | 0.881 | 0.942 | 0.97 | 0.422 | 0.409 | 0.374 | 0.487 | 0.257 | 0.735 | 0.811 | 0.882 | 0.849 | 0.784
4 | NCI-H2087 | 0.765 | 1.01 | 0.787 | 1.07 | 0.671 | 0.886 | 0.889 | 1.02 | 0.767 | 0.635 | 0.198 | 0.213 | 0.16 | 0.165 | 0.115 | 0.257 | 0.276 | 0.287 | 0.297 | 0.232
5 | NCI-H322M | 1.13 | 1.34 | 1.08 | 1.16 | 1.29 | 0.967 | 0.778 | 1.06 | 0.938 | 0.809 | 0.955 | 0.919 | 0.719 | 0.847 | 0.683 | 0.513 | 0.505 | 0.486 | 0.504 | 0.452
6 | NCI-H1734 | 0.813 | 1.07 | 0.828 | 0.922 | 0.725 | 0.909 | 0.818 | 0.971 | 0.861 | 0.718 | 0.247 | 0.184 | 0.203 | 0.192 | 0.155 | 0.249 | 0.221 | 0.268 | 0.284 | 0.248
7 | NCI-H2228 | 1.07 | 0.983 | 1.09 | 1.05 | 1.03 | 0.708 | 0.472 | 0.906 | 0.553 | 0.425 | 0.0989 | 0.17 | 0.16 | 0.175 | 0.133 | 0.318 | – | 0.266 | 0.209 | 0.173
8 | EKVX | 1.1 | 0.986 | 1.01 | 0.87 | 0.808 | 0.957 | 1.03 | 1.02 | 0.953 | 0.718 | 0.703 | 0.916 | 0.723 | 0.804 | 0.814 | 0.373 | 0.398 | 0.37 | 0.367 | 0.263
9 | NCI-H596 | 1 | 1.04 | 1 | 1.03 | 0.802 | 1.08 | 0.983 | 1.04 | 0.908 | 0.54 | 1.13 | 0.925 | 0.827 | 0.905 | 0.847 | 0.873 | 0.858 | 0.887 | 0.754 | 0.491
10 | NCI-H1975 | 0.34 | 0.374 | 0.385 | 0.371 | 0.343 | – | 0.904 | 1.06 | 0.793 | 0.526 | 0.216 | 0.157 | 0.16 | 0.213 | 0.207 | 0.756 | 0.752 | 0.768 | 0.704 | 0.297
11 | NCI-H1666 | 1.02 | 0.866 | 0.742 | 0.849 | 0.779 | 0.71 | 0.774 | 0.829 | 0.73 | 0.615 | 1.09 | 1.13 | 1.06 | 1.01 | 1.04 | 0.582 | 0.554 | 0.633 | 0.593 | 0.598
12 | PC-3 [JPC-3] | 0.885 | 0.837 | 0.835 | 0.806 | 0.809 | 0.876 | 0.923 | 0.951 | 0.981 | 0.944 | 0.487 | 0.65 | 0.69 | 0.65 | 0.497 | 0.82 | 0.939 | 0.895 | 0.878 | 0.861
13 | NCI-H1755 | 0.931 | 0.939 | 0.937 | 1.05 | 0.85 | 0.883 | 0.966 | 1.02 | 0.988 | 0.951 | 0.331 | 0.339 | 0.449 | 0.699 | 0.293 | 0.575 | 0.571 | 0.619 | 0.615 | 0.458
14 | RERF-LC-KJ | 1.2 | 1.08 | 0.95 | 1.13 | 0.878 | 0.856 | 0.845 | 0.926 | 0.912 | 0.752 | 1.31 | 1.33 | 1.12 | 1.19 | 1.07 | 0.52 | 0.477 | 0.526 | 0.475 | 0.325
15 | NCI-H647 | 0.998 | 1.13 | 0.813 | 0.905 | 0.737 | – | 0.886 | 1.29 | 1.08 | 0.332 | 0.171 | 0.141 | – | 0.241 | 0.121 | 0.309 | 0.246 | 0.297 | 0.208 | 0.128
16 | BEN | 0.985 | 0.709 | 0.756 | 0.803 | 0.732 | 0.855 | 0.84 | 0.897 | 0.868 | 0.731 | 0.333 | 0.459 | 0.232 | 0.416 | 0.242 | 0.547 | 0.423 | 0.57 | 0.548 | 0.457
17 | 201T | 1.1 | 1.07 | 1.1 | 1.13 | 1.08 | 1.13 | 1.01 | 1.1 | 1.09 | 1.01 | 1.12 | 1.07 | 1.02 | 1.02 | 0.849 | 0.833 | 0.97 | 0.971 | 0.976 | 0.871
18 | LC-2-ad | 1.02 | 0.971 | 0.938 | 1.11 | 0.992 | 0.811 | 0.83 | 0.819 | 0.24 | 0.188 | 1.17 | 1.06 | 0.886 | 1.14 | 0.957 | 0.378 | 0.45 | 0.43 | 0.296 | 0.259
19 | LCLC-97TM1 | 0.357 | 0.76 | – | 0.569 | 0.835 | 0.151 | 0.152 | 0.184 | 0.133 | 0.174 | 0.82 | 0.738 | 0.708 | 0.818 | 0.607 | 0.184 | 0.245 | 0.315 | 0.254 | 0.284
20 | NCI-H1915 | 0.968 | 1.03 | 0.928 | 1.04 | 0.997 | 1.11 | 1.08 | 1.13 | 1.11 | 1.07 | 0.843 | 0.809 | 0.759 | 0.878 | 0.83 | 0.403 | 0.439 | 0.45 | 0.417 | 0.425
21 | NCI-H3122 | 1.03 | 1.04 | 1.09 | 1.09 | 1.04 | 1.01 | 1 | 0.949 | 1.01 | 0.646 | 0.0784 | 0.0938 | 0.115 | 0.0796 | 0.0833 | 0.404 | 0.371 | 0.367 | 0.198 | 0.118
22 | NCI-H1993 | 1.14 | 1.22 | 0.852 | 0.976 | 0.771 | 0.824 | 0.697 | 0.815 | 0.698 | 0.692 | 0.778 | 0.889 | 0.779 | 1.06 | 0.822 | 0.68 | 0.46 | 0.523 | 0.615 | 0.506
23 | NCI-H2405 | 1.05 | 0.98 | 0.937 | 0.983 | 0.962 | 1.01 | 0.913 | 1.03 | 0.894 | 0.975 | 0.777 | 0.621 | 0.473 | 0.52 | 0.442 | 0.75 | 0.738 | 0.832 | 0.778 | 0.694
24 | NCI-H661 | 0.679 | 0.658 | 0.496 | 0.661 | 0.628 | 0.632 | 0.515 | 0.637 | 0.505 | 0.561 | 0.985 | 0.907 | 0.85 | 0.987 | 1.04 | 0.368 | 0.325 | 0.349 | 0.348 | 0.351
